# How the values were obtained:
# [1] = Multi-dose in vivo antitumor activity study, mouse weight (Example 20); parameters: species or system mice; details: caudal vein once every 2 days
# Procedure: The drugs are administered through the caudal veins of mice once every 2 days for a total of 7 times.
# At the end of the treatment cycle, the orbital venous blood of the mice is collected for later blood routine test, the mice are killed by cervical dislocation method, and tumors are removed immediately and photographed. From day 0, the mice in each group are weighed every three days, and the weights are recorded. The weight average value of each group is calculated, and mouse weight variation curve is drawn according to statistical data. At the end of the treatment cycle, tumors are removed from anesthetized mice immediately and weighted, and the tumor weight of each group is recorded. The tumor inhibition rate (%) is calculated according to the following formula: […]
# HepG2 = assay: Cytotoxicity test (MTT, 72 h); details: Homo sapiens, HepG2, 72 h, read-out: 50% Inhibiting Concentration value (IC50)
# Procedure: (§1) In order to investigate the antitumor activities of the compounds, a variety of tumor cell lines for test are selected. Cells at logarithmic growth period are inoculated in a 96-well plate overnight, then drugs with a certain gradient concentrations are added, and incubation is carried out in a cell culture chamber (5% CO2, 37° C.) for 72 h.
# BGC-823 = assay: Cytotoxicity test (MTT, 72 h); details: Homo sapiens, BGC-823, 72 h, read-out: 50% Inhibiting Concentration value (IC50)
# Procedure: as §1
smiles,measurement,setting,value
CCc1c2c(nc3ccc(OC(=O)OCCOCCOCCOCc4cn(CCO[C@H]5O[C@@H](CO)[C@H](O)[C@@H](O)[C@@H]5O)nn4)cc13)-c1cc3c(c(=O)n1C2)COC(=O)[C@]3(O)CC [Compound 58],Mouse Weight,"[1]; day 0, high-dose group (H) 13.73 mg/kg",16.69 g
same,Mouse Weight,"[1]; day 0, low-dose group (L) 3.433 mg/kg",17.94 g
same,Mouse Weight,"[1]; day 0, medium-dose group (M) 6.865 mg/kg",16.55 g
same,Mouse Weight,"[1]; day 3, high-dose group (H) 13.73 mg/kg",17.60 g
same,Mouse Weight,"[1]; day 3, low-dose group (L) 3.433 mg/kg",16.34 g
same,Mouse Weight,"[1]; day 3, medium-dose group (M) 6.865 mg/kg",16.61 g
same,Mouse Weight,"[1]; day 6, high-dose group (H) 13.73 mg/kg",16.26 g
same,Mouse Weight,"[1]; day 6, low-dose group (L) 3.433 mg/kg",16.36 g
same,Mouse Weight,"[1]; day 6, medium-dose group (M) 6.865 mg/kg",15.81 g
same,Mouse Weight,"[1]; day 9, high-dose group (H) 13.73 mg/kg",17.28 g
same,Mouse Weight,"[1]; day 9, low-dose group (L) 3.433 mg/kg",17.00 g
same,Mouse Weight,"[1]; day 9, medium-dose group (M) 6.865 mg/kg",17.23 g
same,Mouse Weight,"[1]; day 12, high-dose group (H) 13.73 mg/kg",16.88 g
same,Mouse Weight,"[1]; day 12, low-dose group (L) 3.433 mg/kg",16.96 g
same,Mouse Weight,"[1]; day 12, medium-dose group (M) 6.865 mg/kg",16.17 g
same,Mouse Weight,"[1]; day 15, high-dose group (H) 13.73 mg/kg",16.61 g
same,Mouse Weight,"[1]; day 15, low-dose group (L) 3.433 mg/kg",16.41 g
same,Mouse Weight,"[1]; day 15, medium-dose group (M) 6.865 mg/kg",15.46 g
same,Mouse Weight,"[1]; day 18, high-dose group (H) 13.73 mg/kg",16.06 g
same,Mouse Weight,"[1]; day 18, low-dose group (L) 3.433 mg/kg",17.28 g
same,Mouse Weight,"[1]; day 18, medium-dose group (M) 6.865 mg/kg",16.47 g
same,Mouse Weight,"[1]; day 21, high-dose group (H) 13.73 mg/kg",16.50 g
same,Mouse Weight,"[1]; day 21, low-dose group (L) 3.433 mg/kg",16.97 g
same,Mouse Weight,"[1]; day 21, medium-dose group (M) 6.865 mg/kg",16.65 g
same,IC50,HepG2,625 nM
same,IC50,BGC-823,212 nM
CCc1c2c(nc3ccc(OC(=O)NCCOCc4cn(CCO[C@H]5O[C@@H](CO)[C@H](O)[C@@H](O)[C@@H]5O)nn4)cc13)-c1cc3c(c(=O)n1C2)COC(=O)[C@]3(O)CC [Compound 67],Mouse Weight,"[1]; day 0, high-dose group (H) 12.30 mg/kg",17.04 g
same,Mouse Weight,"[1]; day 0, low-dose group (L) 3.075 mg/kg",16.18 g
same,Mouse Weight,"[1]; day 0, medium-dose group (M) 6.15 mg/kg",18.28 g
same,Mouse Weight,"[1]; day 3, high-dose group (H) 12.30 mg/kg",16.15 g
same,Mouse Weight,"[1]; day 3, low-dose group (L) 3.075 mg/kg",16.28 g
same,Mouse Weight,"[1]; day 3, medium-dose group (M) 6.15 mg/kg",17.29 g
same,Mouse Weight,"[1]; day 6, high-dose group (H) 12.30 mg/kg",16.88 g
same,Mouse Weight,"[1]; day 6, low-dose group (L) 3.075 mg/kg",15.76 g
same,Mouse Weight,"[1]; day 6, medium-dose group (M) 6.15 mg/kg",16.82 g
same,Mouse Weight,"[1]; day 9, high-dose group (H) 12.30 mg/kg",16.57 g
same,Mouse Weight,"[1]; day 9, low-dose group (L) 3.075 mg/kg",16.28 g
same,Mouse Weight,"[1]; day 9, medium-dose group (M) 6.15 mg/kg",17.18 g
same,Mouse Weight,"[1]; day 12, high-dose group (H) 12.30 mg/kg",16.06 g
same,Mouse Weight,"[1]; day 12, low-dose group (L) 3.075 mg/kg",16.03 g
same,Mouse Weight,"[1]; day 12, medium-dose group (M) 6.15 mg/kg",16.74 g
same,Mouse Weight,"[1]; day 15, high-dose group (H) 12.30 mg/kg",16.32 g
same,Mouse Weight,"[1]; day 15, low-dose group (L) 3.075 mg/kg",16.04 g
same,Mouse Weight,"[1]; day 15, medium-dose group (M) 6.15 mg/kg",15.82 g
same,Mouse Weight,"[1]; day 18, high-dose group (H) 12.30 mg/kg",17.36 g
same,Mouse Weight,"[1]; day 18, low-dose group (L) 3.075 mg/kg",16.17 g
same,Mouse Weight,"[1]; day 18, medium-dose group (M) 6.15 mg/kg",16.27 g
same,Mouse Weight,"[1]; day 21, high-dose group (H) 12.30 mg/kg",16.78 g
same,Mouse Weight,"[1]; day 21, low-dose group (L) 3.075 mg/kg",16.48 g
same,Mouse Weight,"[1]; day 21, medium-dose group (M) 6.15 mg/kg",16.84 g
same,IC50,HepG2,1050 nM
same,IC50,BGC-823,209 nM
